Laboratory results: patent US20090111778A1, “2-Keto-Oxazoles as Modulators of Fatty Acid Amide Hydrolase” (priority 2005, published 2009)

What was measured:
[1] = biological target: T1, human FAAH (Homo sapiens, UniProt O00519); experiment: Assay Method 1: FAAH assay, hydrolysis of 3H-anandamide by homogenate of SK-N-MC cells transfected with human FAAH; assay type: biochemical; conditions: human FAAH; T84 or transfected SK-N-MC cell homogenate; 3H-AEA tracer 80 nM; rt 1 h; pH 9; read-out: Assay 1 IC50
T1 construct: expressed in transfected cells
T1 sequence (O00519 1-579): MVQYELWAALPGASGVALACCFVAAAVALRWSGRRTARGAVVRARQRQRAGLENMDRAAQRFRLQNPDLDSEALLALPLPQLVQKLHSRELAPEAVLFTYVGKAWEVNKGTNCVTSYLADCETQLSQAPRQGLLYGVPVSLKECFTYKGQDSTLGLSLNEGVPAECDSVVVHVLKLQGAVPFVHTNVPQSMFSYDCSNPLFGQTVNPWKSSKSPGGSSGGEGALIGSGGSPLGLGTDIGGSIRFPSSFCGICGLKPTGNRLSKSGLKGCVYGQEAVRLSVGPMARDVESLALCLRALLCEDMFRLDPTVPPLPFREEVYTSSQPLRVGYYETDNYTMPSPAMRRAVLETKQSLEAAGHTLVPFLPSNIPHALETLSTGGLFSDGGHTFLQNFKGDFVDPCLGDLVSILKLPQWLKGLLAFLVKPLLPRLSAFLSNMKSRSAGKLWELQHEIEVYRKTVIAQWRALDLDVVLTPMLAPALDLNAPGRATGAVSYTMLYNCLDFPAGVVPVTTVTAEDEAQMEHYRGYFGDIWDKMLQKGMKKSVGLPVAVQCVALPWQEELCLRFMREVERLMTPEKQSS
Protocol: A. Transfection of Cells with Human FAAH
(§1) A 10-cm tissue culture dish with a confluent monolayer of SK-N-MC cells was split 2 days (d) prior to transfection. Using sterile technique, the media was removed and the cells were detached from the dish by the addition of trypsin. One fifth of the cells were then placed onto a new 10-cm dish. Cells were grown in a 37° C. incubator with 5% CO2 in Minimal Essential Media Eagle with 10% Fetal Bovine Serum. After 2 d, cells were approximately 80% confluent. These cells were removed from the dish with trypsin and pelleted in a clinical centrifuge. The pellet was re-suspended in 400 μL complete media and transferred to an electroporation cuvette with a 0.4 cm gap between the electrodes. Supercoiled human FAAH cDNA (1 μg) was added to the cells and mixed. The voltage for the electroporation was set at 0.25 kV, and the capacitance was set at 960 μF. After electroporation, the cells were diluted into complete media (10 mL) and plated onto four 10-cm dishes. Because of the variability in the efficiency of electroporation, four different concentrations of cells were plated. The ratios used were 1:20, 1:10, and 1:5, with the remainder of the cells being added to the fourth dish. The cells were allowed to recover for 24 h before adding the selection media (complete media with 600 μg/mL G418). After 10 d, dishes were analyzed for surviving colonies of cells. Dishes with well-isolated colonies were used. Cells from individual colonies were isolated and tested.
The assay mixture consisted of […] of the cell homogenate, 10 μL of the test compound, and 40 μL of anandamide [1-^3H-ethanolamine] (3H-AEA, Perkin-Elmer, 10.3 Ci/mmol), which was added last, for a final tracer concentration of 80 nM. The reaction mixture was incubated at rt for 1 h. During the incubation, 96-well Multiscreen filter plates (catalog number MAFCNOB50; Millipore, Bedford, Mass., USA) were loaded with 25 μL of activated charcoal (Multiscreen column loader, catalog number MACL09625, Millipore) and washed once with 100 μL of MeOH. Also during the incubation, 96-well DYNEX MicroLite plates (catalog number NL510410) were loaded with 100 μL of MicroScint40 (catalog number 6013641, Packard Bioscience, Meriden, Conn., USA). After the 1 h incubation, 60 μL of the reaction mixture were transferred to the charcoal plates, which were then assembled on top of the DYNEX plates using Centrifuge Alignment Frames (catalog number MACF09604, Millipore). The unbound labeled ethanolamine was centrifuged through to the bottom plate (5 min at 2000 rpm), which was preloaded with the scintillant, as described above. The plates were sealed and left at rt for 1 h before counting on a Hewlett Packard TopCount.

[2] = biological target: T2, rat FAAH (Rattus norvegicus, UniProt P97612); experiment: Assay Method 2: FAAH assay, hydrolysis of 3H-anandamide by homogenate of SK-N-MC cells transfected with rat FAAH; assay type: biochemical; conditions: T84 or transfected SK-N-MC cell homogenate, 3H-AEA tracer 80 nM, rt 1 h, pH 9
T2 construct: expressed in transfected cells
T2 sequence (P97612 1-579): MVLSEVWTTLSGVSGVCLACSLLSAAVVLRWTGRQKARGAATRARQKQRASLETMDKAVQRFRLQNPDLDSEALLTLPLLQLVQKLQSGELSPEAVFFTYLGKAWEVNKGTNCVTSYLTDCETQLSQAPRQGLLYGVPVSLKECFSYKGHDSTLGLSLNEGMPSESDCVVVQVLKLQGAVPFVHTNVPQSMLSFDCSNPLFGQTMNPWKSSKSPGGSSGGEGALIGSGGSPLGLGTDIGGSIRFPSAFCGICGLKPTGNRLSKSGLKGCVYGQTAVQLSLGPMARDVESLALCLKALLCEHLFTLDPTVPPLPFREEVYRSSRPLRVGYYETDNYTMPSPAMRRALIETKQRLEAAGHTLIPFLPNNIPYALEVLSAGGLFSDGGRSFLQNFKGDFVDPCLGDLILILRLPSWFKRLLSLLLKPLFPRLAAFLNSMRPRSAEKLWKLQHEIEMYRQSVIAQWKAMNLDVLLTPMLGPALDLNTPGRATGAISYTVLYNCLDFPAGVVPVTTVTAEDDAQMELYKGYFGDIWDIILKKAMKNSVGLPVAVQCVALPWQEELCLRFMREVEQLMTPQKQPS
Protocol: as §1, with “A. Transfection of Cells with Rat FAAH A 10-cm” for “A 10-cm”, “electrodes. Supercoiled rat FAAH cDNA” for “electrodes. Supercoiled human FAAH cDNA”, “and tested. […] B. FAAH Assay […] The reaction mixture was incubated at rt for 1 h. During the incubation, 96-well Multiscreen filter plates (catalog number MAFCNOB50; Millipore, Bedford, Mass., USA) were loaded with 25 μL of activated charcoal (Multiscreen column loader, catalog number MACL09625, Millipore) and washed once with 100 μL of MeOH. Also during the incubation, 96-well DYNEX MicroLite plates (catalog number NL510410) were loaded with 100 μL of MicroScint40 (catalog number 6013641, Packard Bioscience, Meriden, Conn., USA). After the 1 h incubation, 60 μL of the reaction mixture were transferred to the charcoal plates, which were then assembled on top of the DYNEX plates using Centrifuge Alignment Frames (catalog number MACF09604, Millipore). The unbound labeled ethanolamine was centrifuged through to the bottom plate (5 min at 2000 rpm), which was preloaded with the scintillant, as described above. The plates were sealed and left at rt for 1 h before counting on a Hewlett Packard TopCount.” for “and tested.”

CC(C)(C)OC(=O)N1CCC(CCCC(=O)c2ncco2)CC1 [Example 1, 4-(4-Oxazol-2-yl-4-oxo-butyl)-piperidine-1-carboxylic acid tert-butyl ester]
IC50 [1]: 1.8 nM
IC50 [2]: 27 nM

O=C(CCCC1CCN(Cc2cccc(Oc3ccccc3)c2)CC1)c1ncco1 [Example 2, 1-Oxazol-2-yl-4-[1-(3-phenoxy-benzyl)-piperidin-4-yl]-butan-1-one]
IC50 [1]: 0.4 nM
IC50 [2]: 4.7 nM

O=C(CCCC1CCN(Cc2ccccc2)CC1)c1ncco1 [Example 3, 4-(1-Benzyl-piperidin-4-yl)-1-oxazol-2-yl-butan-1-one]
IC50 [1]: 315 nM
IC50 [2]: 900 nM

O=C(CCCC1CCN(Cc2ccccn2)CC1)c1ncco1 [Example 4, 1-Oxazol-2-yl-4-(1-pyridin-2-ylmethyl-piperidin-4-yl)-butan-1-one]
IC50 [1]: 3000 nM

O=C(CCCC1CCN(Cc2cccnc2)CC1)c1ncco1 [Example 5, 1-Oxazol-2-yl-4-(1-pyridin-3-ylmethyl-piperidin-4-yl)-butan-1-one]
IC50 [1]: 1200 nM
IC50 [2]: 3000 nM

O=C(CCCC1CCN(Cc2ccncc2)CC1)c1ncco1 [Example 6, 1-Oxazol-2-yl-4-(1-pyridin-4-ylmethyl-piperidin-4-yl)-butan-1-one]
IC50 [1]: 359 nM
IC50 [2]: 550 nM

O=C(CCCC1CCN(Cc2ccc(F)cc2)CC1)c1ncco1 [Example 7, 4-[1-(4-Fluoro-benzyl)-piperidin-4-yl]-1-oxazol-2-yl-butan-1-one]
IC50 [1]: 850 nM
IC50 [2]: 1000 nM

O=C(CCCC1CCN(Cc2cccc(F)c2)CC1)c1ncco1 [Example 8, 4-[1-(3-Fluoro-benzyl)-piperidin-4-yl]-1-oxazol-2-yl-butan-1-one]
IC50 [1]: 100 nM
IC50 [2]: 350 nM

O=C(CCCC1CCN(Cc2ccc(Cl)cc2)CC1)c1ncco1 [Example 9, 4-[1-(4-Chloro-benzyl)-piperidin-4-yl]-1-oxazol-2-yl-butan-1-one]
IC50 [1]: 66 nM
IC50 [2]: 354 nM

O=C(CCCC1CCN(Cc2cccc(Cl)c2)CC1)c1ncco1 [Example 10, 4-[1-(3-Chloro-benzyl)-piperidin-4-yl]-1-oxazol-2-yl-butan-1-one]
IC50 [1]: 60 nM
IC50 [2]: 80 nM

O=C(CCCC1CCN(Cc2ccc(Br)c(Br)c2)CC1)c1ncco1 [Example 11, 4-[1-(3,4-Dibromo-benzyl)-piperidin-4-yl]-1-oxazol-2-yl-butan-1-one]
IC50 [1]: 36 nM
IC50 [2]: 95 nM

O=C(CCCC1CCN(Cc2ccc(Cl)c(Cl)c2)CC1)c1ncco1 [Example 12, 4-[1-(3,4-Dichloro-benzyl)-piperidin-4-yl]-1-oxazol-2-yl-butan-1-one]
IC50 [1]: 50 nM
IC50 [2]: 70 nM

O=C(CCCC1CCN(Cc2ccc(F)c(Cl)c2)CC1)c1ncco1 [Example 13, 4-[1-(3-Chloro-4-fluoro-benzyl)-piperidin-4-yl]-1-oxazol-2-yl-butan-1-one]
IC50 [1]: 50 nM
IC50 [2]: 180 nM

Cc1cc(CC(=O)N2CCC(CCCC(=O)c3ncco3)CC2)on1 [Example 43, 4-{1-[2-(3-Methyl-isoxazol-5-yl)-acetyl]-piperidin-4-yl}-1-oxazol-2-yl-butan-1-one]
IC50 [1]: 4000 nM

O=C(CCCC1CCN(CC2CCCCC2)CC1)c1ncco1 [Example 86, 4-(1-Cyclohexylmethyl-piperidin-4-yl)-1-oxazol-2-yl-butan-1-one]
IC50 [1]: 9500 nM

COc1ccccc1CN1CCC(CCCC(=O)c2ncco2)CC1 [Example 87, 4-[1-(2-Methoxy-benzyl)-piperidin-4-yl]-1-oxazol-2-yl-butan-1-one]
IC50 [1]: 4000 nM

O=C(CCCC1CCN(CCc2ccccc2)CC1)c1ncco1 [Example 95, 1-Oxazol-2-yl-4-(1-phenethyl-piperidin-4-yl)-butan-1-one]
IC50 [2]: 1200 nM

O=C(CCCC1CCN(Cc2ccc(N3CCOCC3)cc2)CC1)c1ncco1 [Example 106, 4-[1-(4-Morpholin-4-yl-benzyl)-piperidin-4-yl]-1-oxazol-2-yl-butan-1-one]
IC50 [1]: 2000 nM
